Results taken from ChEMBL document CHEMBL1201862, “PubChem BioAssay data set” (2004).
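Interpolation was linear, between the two tested concentrations surrounding the appropriate level; five concentrations were tested over 48 hours in 96-well plates. GI50 is the concentration that inhibits growth by half.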 Calls of active or inactive are those of the source. Cut-off read from the data, not from the text of the source: active = GI50 up to about 1.1 µM and inactive = higher.

Columns and labels:
Assay in all cases: NCI tumour cell line growth inhibition, 48 h
HCT-15 = system: HCT-15
HT-29 = system: HT-29
UACC-62 = system: UACC-62
KM12 = system: KM12
DMS-273 = system: DMS-273
SK-MEL-2 = system: SK-MEL-2
OVCAR-3 = system: OVCAR-3
SF-268 = system: SF-268
LOX IMVI = system: LOX IMVI
HOP-62 = system: HOP-62
UO-31 = system: UO-31
IGROV-1 = system: IGROV-1
OVCAR-4 = system: OVCAR-4
RPMI-8226 = system: RPMI-8226
DLD-1 = system: DLD-1
NCI-H226 = system: NCI-H226
ACHN = system: ACHN
SR = system: SR
SN12C = system: SN12C
MOLT-4 = system: MOLT-4
M14 = system: M14
SK-MEL-5 = system: SK-MEL-5
OVCAR-5 = system: OVCAR-5
Malme-3M = system: Malme-3M
LXFL 529 = system: LXFL 529
RXF 393 = system: RXF 393
SNB-19 = system: SNB-19
NCI-H23 = system: NCI-H23
HCC 2998 = system: HCC 2998
SK-MEL-28 = system: SK-MEL-28
SF-295 = system: SF-295
SF-539 = system: SF-539
CAKI-1 = system: CAKI-1
EKVX = system: EKVX
SNB-75 = system: SNB-75
U-251 = system: U-251
OVCAR-8 = system: OVCAR-8
HCT-116 = system: HCT-116
786-0 = system: 786-0
HL-60 = system: HL-60
UACC-257 = system: UACC-257
NCI-H460 = system: NCI-H460
K562 = system: K562
SW-620 = system: SW-620
M19-MEL = system: M19-MEL
CCRF-CEM = system: CCRF-CEM
KM-20L2 = system: KM-20L2
NCI-H522 = system: NCI-H522
A549 = system: A549
A498 = system: A498
TK-10 = system: TK-10
COLO 205 = system: COLO 205
DMS-114 = system: DMS-114
PC-3 = system: PC-3
T47D = system: T47D
DU-145 = system: DU-145
BT-549 = system: BT-549
MDA-N = system: MDA-N
HOP-92 = system: HOP-92
Hs-578T = system: Hs-578T
MCF7 = system: MCF7
SNB-78 = system: SNB-78
NCI/ADR-RES = system: NCI/ADR-RES
MDA-MB-435 = system: MDA-MB-435
HOP-18 = system: HOP-18
SK-OV-3 = system: SK-OV-3

Measured: GI50

COc1cc(C(C)c2cc3c(cc2OCCCCCOc2cc4c(cc2C(C)c2cc(OC)c(OC)c(OC)c2)OCO4)OCO3)cc(OC)c1OC (stereo not drawn)
inactive: HT-29 > 100 µM | UACC-62 > 100 µM | KM12 > 100 µM | DMS-273 > 100 µM | SK-MEL-2 > 100 µM | OVCAR-3 > 100 µM | SF-268 > 100 µM | LOX IMVI > 100 µM | HOP-62 > 100 µM | UO-31 > 100 µM | IGROV-1 > 100 µM | OVCAR-4 > 100 µM | RPMI-8226 > 100 µM | DLD-1 > 100 µM | NCI-H226 > 100 µM | ACHN > 100 µM | SR > 100 µM | SN12C > 100 µM | MOLT-4 > 100 µM | M14 > 100 µM | SK-MEL-5 > 100 µM | OVCAR-5 > 100 µM | Malme-3M > 100 µM | LXFL 529 > 100 µM | RXF 393 > 100 µM | SNB-19 > 100 µM | NCI-H23 > 100 µM | HCC 2998 > 100 µM | SK-MEL-28 > 100 µM | SF-295 > 100 µM | SF-539 > 100 µM | CAKI-1 > 100 µM | EKVX > 100 µM | SNB-75 59.8 µM | U-251 > 100 µM | OVCAR-8 > 100 µM | HCT-116 > 100 µM | 786-0 > 100 µM | HL-60 > 100 µM | UACC-257 33.7 µM | NCI-H460 > 100 µM | K562 > 100 µM | SW-620 > 100 µM | M19-MEL > 100 µM | CCRF-CEM > 100 µM | KM-20L2 > 100 µM | NCI-H522 > 100 µM | A549 > 100 µM | A498 > 100 µM
> 100 µM: HCT-15

N#CC(C#N)=C(N)/C(C#N)=C/c1ccc2[nH]ccc2c1
inactive: HT-29 > 100 µM | TK-10 > 100 µM | UACC-62 > 84.9 µM | KM12 > 100 µM | COLO 205 > 100 µM | DMS-273 > 100 µM | SK-MEL-2 > 100 µM | DMS-114 > 100 µM | OVCAR-3 > 100 µM | SF-268 > 100 µM | LOX IMVI > 100 µM | PC-3 > 100 µM | HOP-62 > 84.3 µM | T47D > 100 µM | UO-31 14 µM | IGROV-1 > 100 µM | DU-145 > 100 µM | OVCAR-4 > 100 µM | RPMI-8226 > 100 µM | NCI-H226 > 100 µM | ACHN > 100 µM | SR > 100 µM | SN12C > 100 µM | MOLT-4 > 100 µM | M14 > 100 µM | SK-MEL-5 > 100 µM | OVCAR-5 > 100 µM | Malme-3M > 100 µM | BT-549 70.6 µM | RXF 393 > 91.2 µM | MDA-N > 100 µM | HOP-92 > 100 µM | Hs-578T > 100 µM | MCF7 > 100 µM | SNB-19 > 100 µM | NCI-H23 > 100 µM | HCC 2998 > 100 µM | SK-MEL-28 > 100 µM | SNB-78 > 100 µM | NCI/ADR-RES > 100 µM | SF-295 > 100 µM | SF-539 > 100 µM | CAKI-1 > 100 µM | EKVX > 100 µM | SNB-75 22.7 µM | U-251 > 100 µM | MDA-MB-435 > 100 µM | OVCAR-8 > 100 µM | HCT-116 > 100 µM | 786-0 > 100 µM | HL-60 > 100 µM | UACC-257 > 100 µM | HOP-18 71.4 µM | NCI-H460 > 100 µM | K562 > 100 µM | SK-OV-3 > 100 µM | SW-620 > 100 µM | M19-MEL > 100 µM | CCRF-CEM > 100 µM | KM-20L2 > 100 µM | NCI-H522 97.3 µM | A549 > 100 µM | A498 > 100 µM
> 100 µM: HCT-15

COc1ccc(/C=C/c2cc(OC)c(OC)c(OC)c2)cc1O [E-COMBRETASTATIN A-4]
inactive: HT-29 7.89 µM | TK-10 13.3 µM | UO-31 1.13 µM | IGROV-1 3.17 µM | OVCAR-5 22.2 µM | BT-549 8.95 µM | CAKI-1 6.71 µM | EKVX 8.73 µM | KM-20L2 8.71 µM
